# What was measured:
# [1] = target: T1, Nuclear receptor ROR-gamma (Mus musculus, UniProt P51450); assay: Transrepression of RORgammat in Balb/c mouse splenocytes assessed as reduction in anti-CD3/anti-CD28 stimulated IL-17 level measured after 48 hrs in presence of anti-CD3/anti-CD28 by ELISA; type: cell-based
# T1 sequence (P51450 whole entry): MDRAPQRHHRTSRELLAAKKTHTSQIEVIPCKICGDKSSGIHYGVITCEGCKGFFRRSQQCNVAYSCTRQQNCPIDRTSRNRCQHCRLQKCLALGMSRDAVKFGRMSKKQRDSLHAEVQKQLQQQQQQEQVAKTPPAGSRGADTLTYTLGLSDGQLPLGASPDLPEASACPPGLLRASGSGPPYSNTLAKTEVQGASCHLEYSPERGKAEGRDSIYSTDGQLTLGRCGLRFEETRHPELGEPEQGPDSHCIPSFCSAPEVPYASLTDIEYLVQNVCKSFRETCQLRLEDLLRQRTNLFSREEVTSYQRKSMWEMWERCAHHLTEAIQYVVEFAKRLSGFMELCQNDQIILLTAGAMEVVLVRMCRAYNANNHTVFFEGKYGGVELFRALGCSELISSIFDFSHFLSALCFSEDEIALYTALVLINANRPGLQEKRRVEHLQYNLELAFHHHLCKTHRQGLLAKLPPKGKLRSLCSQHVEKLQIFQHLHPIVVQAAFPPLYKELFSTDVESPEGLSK
# [2] = target: T1, Nuclear receptor ROR-gamma; assay: Inverse agonist activity at RORgammat in mouse splenocytes derived naive T cells assessed as suppression of T cell differentiation to Th17 cells by measuring IL-17 secretion in presence of […]/anti-IFNgamma/TGFbeta/IL-6 for 6 days by ELISA; type: cell-based
# [3] = Metabolic stability in human hepatocytes assessed as parent compound remaining after 60 mins; type: ADME, cell-based, Hepatocyte; conditions: read-out: Stability
# [4] = Plasma protein binding in mouse; type: ADME; conditions: read-out: PPB (converted)
# [5] = AUC (0 to 24 hrs) in mouse at 10 mg/kg, po; type: ADME, organism-based; set-up: dose 10 mg/kg, time < 24 hr, route oral; conditions: in vivo
# [6] = Clearance in mouse at 3 mg/kg, iv; type: ADME, organism-based; conditions: in vivo
# [7] = AUC in mouse brain at 10 mg/kg, po; type: ADME, organism-based
# Mus musculus [8] = assay: Inhibition of anti-CD3-induced IL-17A level in Balb/c mouse plasma at 30 mg/kg, po treated prior to stimulation with anti-CD3 for 3 hrs relative to control; type: functional
# Mus musculus [9] = assay: Immunosuppressive activity in MOG (35 to 55 residues)/pertussis toxin-induced experimental allergic encephalomyelitis C57BL/6J mouse model assessed as reduction in disease severity score at 10 mg/kg, po bid measured at day 23 relative to dexamethasone; type: functional; conditions: 552 h
# Mus musculus [10] = assay: (§1) Immunosuppressive activity in MOG (35 to 55 residues)/pertussis toxin-induced experimental allergic encephalomyelitis C57BL/6J mouse model assessed as reduction in disease severity score at 30 mg/kg, po bid measured at day 23 relative to dexamethasone; type: functional; conditions: 552 h
# Mus musculus [11] = assay: as §1, with “IL-22 gene expression in spinal cord” for “disease severity score”, “19 post MOG immunization/pertusis immunization” for “23”, “control” for “dexamethasone”; type: functional; conditions: 456 h
# Mus musculus [12] = assay: as §1, with “CCR6 gene expression in spinal cord” for “disease severity score”, “23 post MOG immunization/pertusis immunization” for “23”, “control” for “dexamethasone”; type: functional; conditions: 552 h
smiles,measurement,setting,value
O=C(O)c1ccc(-n2cc(C(=O)c3c(Cl)cccc3Cl)c3cccc(F)c32)cc1,IC50,[1],500 to 503 nM
same,IC50,[2],26 nM
same,remaining at 1 h,[3],59%
same,fraction unbound,[4],0.02
same,AUC(0-t) at 24 h,[5],10.4 µM·h
same,clearance,[6],23.4 mL/min/kg
same,AUC,[7],0.29 µM·h
same,inhibition in vivo at 30 mg/kg,Mus musculus [8],33%
same,inhibition in vivo at 10 mg/kg,Mus musculus [9],31%
same,inhibition in vivo at 30 mg/kg,Mus musculus [10],39%
same,inhibition in vivo at 30 mg/kg,Mus musculus [11],36%
same,inhibition in vivo at 30 mg/kg,Mus musculus [12],36%
